The values below come from ChEMBL document CHEMBL1129258, “Synthesis and structure-activity relationships of 2-pyridones: a novel series of potent DNA gyrase inhibitors as antibacterial agents” (J Med Chem, 1996).

The term ED50 denotes the dose that gives a 50% effect, or the effect in half of the subjects. As usually defined, the Cmax is the highest concentration seen after dosing. By half-life is commonly meant the time needed for the level to fall by half in the phase considered. Lower therefore signals rapid decline. As usually defined, the bioavailability is the share of a dose that reaches the circulation, judged against a reference dose that is usually intravenous. Lower therefore signals little systemic uptake.

Each structure is given as a SMILES string. Values after ≈ are worked out from the molar mass of the structure shown. A value given as a limit tells only on which side of the number the result lay.

In one data set the test system is Enterococcus faecium. As to the kind of experiment: Inhibitory activity against enterococcus faecium Van A. The data set is classed as functional.
Data set [1] concerns Streptococcus pneumoniae. As to the kind of experiment: (§1) In vivo efficacy against Strep. administration. Format: functional.
A short description of data set [2]: In vitro antibacterial activity against gram-negative organism Pseudomonas aeruginosa DPHD-2862. The data set is classed as functional. Particulars: Pseudomonas aeruginosa; read-out: MIC.
For data set [3], the target named is T1, DNA gyrase (Escherichia coli) (UniProt P0AES6+P0AES4). Description: In vitro antibacterial against gram-negative organism Escherichia coli JUHL. Particulars: Escherichia coli K-12. Format: functional.
Data set [4] concerns the target T2, DNA gyrase (Staphylococcus aureus) (UniProt P0A0K8+P20831). As to the kind of experiment: In vivo efficacy against Staphylococcus aureus NCTC-10649M after subcutaneous administration. Format: functional, organism-based.
A further data set deals with Streptococcus pyogenes. As to the kind of experiment: In vitro antibacterial activity against gram-positive organism Streptococcus pyogenes EES61. The data set is classed as functional. Particulars: Streptococcus pyogenes; read-out: MIC.
For data set [5], the target named is T1, DNA gyrase (Escherichia coli). Description: In vitro antibacterial activity against gram-negative organism Klebsiella pneumoniae ATCC 8045. The data set is classed as functional.
In data set [6] the target is T2, DNA gyrase (Staphylococcus aureus). Description: In vitro antibacterial activity against gram-positive organism Staphylococcus aureus ATCC 6538p. The data set is classed as functional.
For data set [7] the target is unchanged. As to the kind of experiment: (§2) In vivo efficacy against Staphylococcus aureus NCTC-10649M after oral administration. The data set is classed as functional, organism-based.
Data set [8] has as its target T1, DNA gyrase (Escherichia coli). Description: In vitro antibacterial activity against gram-negative organism Prov. stuartii CMX-640. The data set is classed as functional. The note with it: Providencia stuartii.
Data set [9] can be described thus: (§3) In vitro antibacterial activity against gram-negative organism Pseudomonas aeruginosa 5007. The data set is classed as functional. The note with it: Pseudomonas aeruginosa; read-out: MIC.
Data set [10] deals with Streptococcus pneumoniae. Described as §1. Format: functional. The source holds these as a separate data set.
Data set [11] addresses T1, DNA gyrase (Escherichia coli). Description: In vitro antibacterial activity against gram-positive organism Streptococcus bovis A-5169. Format: functional. The note with it: Streptococcus equinus.
Data set [12] deals with Escherichia coli. Description: In vivo efficacy against Escherichia coli JUHL by orally administered. Format: functional. Particulars: po.
Data set [13] concerns the target T2, DNA gyrase (Staphylococcus aureus). As to the kind of experiment: In vitro antibacterial activity against gram-positive organism Staphylococcus aureus 1775. The data set is classed as functional.
The target in data set [14] is T1, DNA gyrase (Escherichia coli). As to the kind of experiment: In vivo efficacy against Escherichia coli JUHL by subcutaneous administration. The data set is classed as functional, organism-based. Particulars: Escherichia coli K-12.
The target of data set [15] is T2, DNA gyrase (Staphylococcus aureus). Description: In vitro antibacterial activity against gram-positive organism Staphylococcus aureus NCTC-10649M. The data set is classed as functional.
Data set [16] addresses T1, DNA gyrase (Escherichia coli). As to the kind of experiment: In vitro antibacterial activity against gram-negative organism […] ATCC 13048. Format: functional. Particulars: Enterobacter aerogenes.
The subject of another data set is Enterococcus faecalis. Description: Inhibitory activity against enterococcus faecalis Van B. The data set is classed as functional.
Data set [17] addresses T1, DNA gyrase (Escherichia coli). Description: In vitro antibacterial activity against gram-positive organism Enterococcus faecium ATCC 8043. Format: functional.
For data set [18], the system named is Staphylococcus aureus. The data set is described as §2. Format: functional.
Data set [19] deals with Pseudomonas aeruginosa. The description is as §3. Format: functional.
Data set [20] relates to Escherichia coli. As to the kind of experiment: In vivo efficacy against Escherichia coli JUHL by subcutaneously administered. Format: functional. The note with it: sc.
For data set [21], the target named is T1, DNA gyrase (Escherichia coli). Particulars: Escherichia coli K-12.
Description: Concentration which causes 50% of the gyrase (Escherichia coli H560)-mediated maximal DNA cleavage.
The test system of data set [22] is Staphylococcus aureus. As to the kind of experiment: In vivo efficacy against Staphylococcus aureus NCTC-10649M by subcutaneously administered. Format: functional.
Data set [23] concerns Staphylococcus aureus. As to the kind of experiment: In vivo efficacy against Staphylococcus aureus NCTC-10649M by orally administered. The data set is classed as functional.
The subject of data set [24] is Streptococcus pneumoniae. As to the kind of experiment: In vivo efficacy against Stap. administered. Format: functional.
Data set [25] has as its system Pseudomonas aeruginosa. As to the kind of experiment: In vivo efficacy against Pseudomonas aeruginosa 5007 by subcutaneously administered. Format: functional. The note with it: sc.
The nature of data set [26]: In vivo efficacy against Pseudomonas aeruginosa 5007 after subcutaneous administration. Format: functional.
The subject of data set [27] is Pseudomonas aeruginosa. Description: In vivo efficacy against Pseudomonas aeruginosa 5007 by orally administered. The data set is classed as functional. Particulars: Pseudomonas aeruginosa, po; read-out: ED50.
Data set [28] in a line: Maximum plasma concentration in rats after an oral dose of 5 mg/kg. The note with it: rat.
A short description of data set [29]: in vivo. The note with it: rat, plasma, po, 5 mg/kg.
Data set [30] concerns Streptococcus pneumoniae. As to the kind of experiment: In vivo efficacy against Strep. administered. The data set is classed as functional. Particulars: Streptococcus pneumoniae; read-out: ED50.
A short description of data set [31]: in vivo. Particulars: rat, po, 5 mg/kg.
Description: Oral bioavailability in rat (dose 5 mg/kg)
Data set [32] addresses T1, DNA gyrase (Escherichia coli). As to the kind of experiment: In vivo efficacy against Escherichia coli JUHL after oral administration. The data set is classed as functional, organism-based. The note with it: Escherichia coli K-12.
Data set [33] concerns Pseudomonas aeruginosa. As to the kind of experiment: In vivo efficacy against Pseudomonas aeruginosa 5007 following p.o. administration.

T2 sequence (P0A0K8 2-644 limits assumed): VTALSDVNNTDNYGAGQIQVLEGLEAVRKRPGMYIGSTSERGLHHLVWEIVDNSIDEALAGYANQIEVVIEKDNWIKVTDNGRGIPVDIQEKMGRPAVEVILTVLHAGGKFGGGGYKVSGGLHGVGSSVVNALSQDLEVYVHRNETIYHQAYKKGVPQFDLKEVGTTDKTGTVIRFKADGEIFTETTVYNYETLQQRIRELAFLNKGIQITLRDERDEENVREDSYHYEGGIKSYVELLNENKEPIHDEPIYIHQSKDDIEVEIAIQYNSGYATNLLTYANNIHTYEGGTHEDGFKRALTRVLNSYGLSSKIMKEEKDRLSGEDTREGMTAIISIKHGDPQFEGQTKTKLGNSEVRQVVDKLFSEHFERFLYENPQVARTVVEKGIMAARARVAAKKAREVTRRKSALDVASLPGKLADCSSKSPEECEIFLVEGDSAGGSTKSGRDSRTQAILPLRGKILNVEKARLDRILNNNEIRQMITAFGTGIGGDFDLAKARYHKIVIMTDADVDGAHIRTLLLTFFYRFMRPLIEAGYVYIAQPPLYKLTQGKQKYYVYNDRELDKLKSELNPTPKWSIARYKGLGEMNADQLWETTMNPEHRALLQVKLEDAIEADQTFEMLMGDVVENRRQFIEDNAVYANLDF
T2 sequence (P20831 whole entry partner): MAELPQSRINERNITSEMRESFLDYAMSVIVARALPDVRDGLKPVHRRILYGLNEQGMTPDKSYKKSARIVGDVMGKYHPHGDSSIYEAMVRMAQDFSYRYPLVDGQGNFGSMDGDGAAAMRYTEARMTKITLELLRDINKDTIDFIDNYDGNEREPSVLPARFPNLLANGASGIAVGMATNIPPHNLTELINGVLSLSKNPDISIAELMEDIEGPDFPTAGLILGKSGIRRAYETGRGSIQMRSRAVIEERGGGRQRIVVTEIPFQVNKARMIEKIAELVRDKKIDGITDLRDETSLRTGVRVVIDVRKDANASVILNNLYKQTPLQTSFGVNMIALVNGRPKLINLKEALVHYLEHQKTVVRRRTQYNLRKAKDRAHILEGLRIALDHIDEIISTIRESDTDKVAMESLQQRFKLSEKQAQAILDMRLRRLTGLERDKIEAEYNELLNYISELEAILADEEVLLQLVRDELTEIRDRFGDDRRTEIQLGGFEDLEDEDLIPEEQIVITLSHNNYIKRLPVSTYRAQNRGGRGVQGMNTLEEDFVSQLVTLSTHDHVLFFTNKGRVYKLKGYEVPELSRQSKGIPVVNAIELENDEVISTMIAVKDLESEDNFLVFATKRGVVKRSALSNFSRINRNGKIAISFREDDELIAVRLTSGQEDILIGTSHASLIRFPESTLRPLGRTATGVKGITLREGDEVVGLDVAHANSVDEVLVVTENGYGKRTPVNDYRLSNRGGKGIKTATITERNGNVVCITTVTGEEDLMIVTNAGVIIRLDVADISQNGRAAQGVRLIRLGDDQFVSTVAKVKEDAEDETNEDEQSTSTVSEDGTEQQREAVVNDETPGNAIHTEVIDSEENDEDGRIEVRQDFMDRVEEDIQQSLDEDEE

As to `Cc1c(N2CCC(N(C)C)C2)c(F)cn2c(=O)c(C(=O)O)cc(C3CC3)c12` (stereo not drawn), the MIC came out at 1 mg/L (≈ 2.68 µM) in the data set on Enterococcus faecium; 12.5 mg/L (≈ 33.5 µM) in data set [2]; 0.02 mg/L (≈ 0.0536 µM) in [3]; 0.1 mg/L (≈ 0.268 µM) with Streptococcus pyogenes; 0.02 mg/L (≈ 0.0536 µM) in data set [5]; 0.05 mg/L (≈ 0.134 µM) in data set [6]. In addition, the MIC in [8] was 3.1 mg/L (≈ 8.3 µM); in data set [9], 0.39 mg/L (≈ 1.04 µM); in data set [11] it was 0.39 mg/L (≈ 1.04 µM); in data set [13], 0.78 mg/L (≈ 2.09 µM); in data set [15], 0.05 mg/L (≈ 0.134 µM); in data set [16], 0.1 mg/L (≈ 0.268 µM). Besides, the MIC was 0.12 mg/L (≈ 0.321 µM) in the data set with Enterococcus faecalis and 0.1 mg/L (≈ 0.268 µM) in data set [17]. Also, the ED50 with Streptococcus pneumoniae [1] was above 25 mg/kg; in [4], 4.7 mg/kg; in data set [7] it was 25 mg/kg; with Streptococcus pneumoniae [10] it was 44.1 mg/kg; with Escherichia coli [12] it was above 10 mg/kg; in data set [14] it was 1.9 mg/kg.
As for `Cc1c(N2CC[C@@]3(C[C@@H]3N)C2)c(F)cn2c(=O)c(C(=O)O)cc(C3CC3)c12`, the ED50 with Staphylococcus aureus [18] worked out at 6.3 mg/kg; in [4], 1.2 mg/kg. The MIC in data set [2] was 3.1 mg/L (≈ 8.35 µM); in [3], 0.01 mg/L (≈ 0.0269 µM); in the data set on Streptococcus pyogenes, 0.01 mg/L (≈ 0.0269 µM); in [5], 0.005 mg/L (≈ 0.0135 µM); in data set [6], 0.002 mg/L (≈ 0.00538 µM); in data set [8], 0.39 mg/L (≈ 1.05 µM). Besides, the MIC with Pseudomonas aeruginosa [19] amounted to 0.39 mg/L (≈ 1.05 µM); in data set [13], 0.39 mg/L (≈ 1.05 µM); in [15] it was 0.02 mg/L (≈ 0.0538 µM); in [16], 0.05 mg/L (≈ 0.135 µM); in data set [17], 0.05 mg/L (≈ 0.135 µM).
Consider `Cc1c(N2CCC(N)C2)c(F)cn2c(=O)c(/C(O)=C/[N+](=O)[O-])cc(C3CC3)c12` (stereo not drawn), for which the MIC amounted to 6.2 mg/L (≈ 16 µM) in data set [2]; 0.02 mg/L (≈ 0.0515 µM) in data set [3]; 0.2 mg/L (≈ 0.515 µM) with Streptococcus pyogenes; 0.02 mg/L (≈ 0.0515 µM) in [5]; 0.05 mg/L (≈ 0.129 µM) in data set [6]; 1.56 mg/L (≈ 4.02 µM) in data set [8]. The MIC in data set [9] turned out to be 0.39 mg/L (≈ 1 µM); in [11], 0.2 mg/L (≈ 0.515 µM); in [13] it was 6.2 mg/L (≈ 16 µM); in [15] it was 0.1 mg/L (≈ 0.257 µM); in [16], 0.1 mg/L (≈ 0.257 µM); in data set [17] it was 0.39 mg/L (≈ 1 µM). The ED50 in the data set with Escherichia coli [20] was above 5 mg/kg; with Staphylococcus aureus [22] it was above 12 mg/kg; in the data set on Staphylococcus aureus [23] it was 25.2 mg/kg; with Streptococcus pneumoniae [24], above 8 mg/kg; in the data set on Escherichia coli [12], above 10 mg/kg; in the data set on Pseudomonas aeruginosa [25], 3.2 mg/kg. The CC50 in data set [21] is 3 mg/L (≈ 7.72 µM).
Turning to `Cc1c(N2C[C@@H]3CCN[C@@H]3C2)c(F)cn2c(=O)c(C(=O)O)cc(C3CC3)c12` (stereo in doubt; 45o), the MIC amounted to 6.2 mg/L (≈ 16.7 µM) in data set [2], 0.05 mg/L (≈ 0.135 µM) in the data set with Streptococcus pyogenes and 0.39 mg/L (≈ 1.05 µM) in data set [9]. Also, the ED50 in data set [26] stood at 6.4 mg/kg; with Pseudomonas aeruginosa [27], 39.9 mg/kg; with Streptococcus pneumoniae [10] (Streptococcus pneumoniae, read-out: ED50), 7.6 mg/kg; in the data set on Streptococcus pneumoniae [30], 4.5 mg/kg. The Cmax in data set [28] stood at 1.13 µg/mL. The same molecule gave a half-life in “in vivo [29]” of 4.1 h. Besides, the bioavailability in the data set “in vivo [31]” worked out at 62%.
For the molecule `NC1CCN(c2c(F)cn3c(=O)c(C(=O)O)cc(C4CC4)c3c2Cl)C1` (stereo not drawn), the ED50 in the data set with Streptococcus pneumoniae [1] stood at 8.5 mg/kg; in [4], 1.6 mg/kg; in [26] (Pseudomonas aeruginosa, sc, read-out: ED50), 3.3 mg/kg; in data set [7], 5.7 mg/kg; in data set [32], 5.6 mg/kg; in the data set on Streptococcus pneumoniae [10], 11.1 mg/kg. In addition, the ED50 with Pseudomonas aeruginosa [33] came to 17 mg/kg; in data set [14] it was 1 mg/kg. For the same molecule, the MIC in [2] turned out to be 6.2 mg/L (≈ 16.9 µM); in [3], 0.05 mg/L (≈ 0.137 µM); with Streptococcus pyogenes, 0.39 mg/L (≈ 1.07 µM); in data set [5] it was 0.05 mg/L (≈ 0.137 µM); in data set [6], 0.2 mg/L (≈ 0.547 µM); in [8], 3.1 mg/L (≈ 8.47 µM). Moreover, the MIC in data set [9] amounted to 0.39 mg/L (≈ 1.07 µM); in data set [11] it was 0.78 mg/L (≈ 2.13 µM); in data set [13] it was 6.2 mg/L (≈ 16.9 µM); in data set [15] it was 0.2 mg/L (≈ 0.547 µM); in data set [16], 0.1 mg/L (≈ 0.273 µM); in [17], 0.39 mg/L (≈ 1.07 µM). The molecule also showed a CC50 in data set [21] of 0.31 mg/L (≈ 0.847 µM).
